Several values for one entry are separate records, joined by “and”; a condition that tells them apart may be missing. Equal entries are not always repeated. Marks after values point to notes of the source that are not given here.

Assay [1] concerns the target CGRP receptor complex (Homo sapiens, UniProt O60894+Q16602). In words: Functional antagonism/Schild analysis, CGRP-stimulated cAMP production (HTRF) in SK-N-MC cells. It is filed as cell-based. On the procedure: Saturation/Scatchard Analysis. […] Saturation data were analyzed using a one site binding equation to estimate apparent equilibrium dissociation constant (Kd) and the maximum number of binding sites (Bmax) (Prizm v4.0, Graphpad). […] Functional Antagonism/Schild analysis. Agonist stimulation of CGRP receptor complex leads to cyclic AMP (adenosine 3′5′-cyclic monophosphate) production via Gs-dependent activation of an adenylate cyclase (Juaneda C et al., TiPS, 2000; 21:432-438). Consequently, CGRP receptor antagonists inhibit CGRP-induced cyclic AMP formation in SK-N-MC cells which natively express the CGRP receptor complex (Doods H et al., Br J Pharmacol, 2000; 129(3):420-423). […] A Schild analysis format was used, which allowed investigation of the mechanism of antagonism. […] Various concentrations of CGRP were added and the cells were allowed to incubate 30 min at room temperature. The cells were lysed with lysis reagent and cAMP concentrations were determined by HTRF according to the manufacturer's instructions. A standard curve using known quantities of cAMP was evaluated in parallel to allow conversion of HTRF ratio to nM cAMP. The resulting curves were then evaluated using a Gaddum/Schild equation individually and with global fitting (Prizm v4.0, Graphpad). […] To obtain a global fit the following parameters were shared (top, bottom, logEC50, Hill slope and pA2) and all curves were fit simultaneously. […] Non-Terminal Method for Assessing In Vivo Efficacy of Small Molecule CGRP-Receptor Antagonists in Mammals Overview. […] Non-human primates (e.g., marmosets) are the only animals known to have human-like CGRP receptor pharmacology conferred by the presence of the specific amino acid residue (Trp74) in their RAMP1 sequence which is responsible for the phenotype of the human receptor (Mallee et al. J Biol Chem 2002 277:14294). […]
For orientation: Changes in cAMP serve as a functional read-out for many G protein-coupled receptors.

Assay [2] has as its system CGRP-induced increase in laser Doppler facial blood flow. Description: Inhibition of CGRP-induced increase in laser Doppler facial blood flow in non-human primate. It is filed as in vivo, common marmoset (Callithrix jacchus). Particulars: pretreat −30 min, hαCGRP 10 μg/kg i.v. On the procedure:
FIG. 4. […] Data are peak % change from baseline±sem, with each animal serving as its own control.
Saturation/Scatchard Analysis. […] Saturation data were analyzed using a one site binding equation to estimate apparent equilibrium dissociation constant (Kd) and the maximum number of binding sites (Bmax) (Prizm v4.0, Graphpad). […] Functional Antagonism/Schild analysis. Agonist stimulation of CGRP receptor complex leads to cyclic AMP (adenosine 3′5′-cyclic monophosphate) production via Gs-dependent activation of an adenylate cyclase (Juaneda C et al., TiPS, 2000; 21:432-438). Consequently, CGRP receptor antagonists inhibit CGRP-induced cyclic AMP formation in SK-N-MC cells which natively express the CGRP receptor complex (Doods H et al., Br J Pharmacol, 2000; 129(3):420-423). […] A Schild analysis format was used, which allowed investigation of the mechanism of antagonism. […] Various concentrations of CGRP were added and the cells were allowed to incubate 30 min at room temperature. The cells were lysed with lysis reagent and cAMP concentrations were determined by HTRF according to the manufacturer's instructions. A standard curve using known quantities of cAMP was evaluated in parallel to allow conversion of HTRF ratio to nM cAMP. The resulting curves were then evaluated using a Gaddum/Schild equation individually and with global fitting (Prizm v4.0, Graphpad). […] To obtain a global fit the following parameters were shared (top, bottom, logEC50, Hill slope and pA2) and all curves were fit simultaneously. […] Non-Terminal Method for Assessing In Vivo Efficacy of Small Molecule CGRP-Receptor Antagonists in Mammals Overview. […] Non-human primates (e.g., marmosets) are the only animals known to have human-like CGRP receptor pharmacology conferred by the presence of the specific amino acid residue (Trp74) in their RAMP1 sequence which is responsible for the phenotype of the human receptor (Mallee et al. J Biol Chem 2002 277:14294). Since current migraine models primarily use rats (Escott et al. Brain Res 1995 669:93; Williamson et al. Cephalalgia 1997 17:525), or are invasive, terminal procedures in primates (Doods et al. Br J Pharmacol 2000 129:420), a novel non-invasive, survival model in non-human primates for in vivo efficacy assessment of CGRP-receptor antagonists was developed. […] Peptide and small-molecule CGRP-receptor antagonists were used to validate the non-human primate model. […] Animals. Adult male and female common marmosets (Callithrix jacchus) purchased from Harlan and weighing 350-550 g served as subjects. Anesthesia & Surgical Preparation. Animals are anesthetized by isoflurane inhalation in an induction chamber (4-5% rapid induction, maintained with 1-2.5%; Solomon et al., 1999).

Sequence of CGRP receptor complex (Q16602 23-461): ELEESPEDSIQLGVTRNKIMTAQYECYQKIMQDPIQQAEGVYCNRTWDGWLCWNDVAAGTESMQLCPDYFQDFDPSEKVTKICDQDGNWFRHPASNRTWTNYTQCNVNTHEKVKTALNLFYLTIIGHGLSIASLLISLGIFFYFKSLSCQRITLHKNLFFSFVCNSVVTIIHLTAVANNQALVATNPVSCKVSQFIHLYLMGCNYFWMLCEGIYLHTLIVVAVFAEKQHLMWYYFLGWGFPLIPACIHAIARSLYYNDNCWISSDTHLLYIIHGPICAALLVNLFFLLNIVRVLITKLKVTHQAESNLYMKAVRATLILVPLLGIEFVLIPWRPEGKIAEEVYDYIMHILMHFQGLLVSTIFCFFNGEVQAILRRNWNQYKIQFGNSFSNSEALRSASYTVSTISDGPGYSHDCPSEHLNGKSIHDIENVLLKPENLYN
Sequence of CGRP receptor complex (O60894 27-148): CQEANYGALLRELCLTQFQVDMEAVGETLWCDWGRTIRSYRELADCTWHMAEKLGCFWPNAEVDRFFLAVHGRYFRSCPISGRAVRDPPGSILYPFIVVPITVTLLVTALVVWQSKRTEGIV

One may read the Kb as the affinity of an antagonist, worked out from how it opposes an agonist. The low end stands for a more potent antagonist, the high end for a less potent antagonist. By % Inhibition is commonly meant the relative decrease from the control value, in per cent. Consider `O=C(O[C@@H]1CC[C@@H](c2cccc(F)c2F)Cc2cccnc21)N1CCC(n2c(=O)[nH]c3ncccc32)CC1` [Example 20], for which, in assay [1] (15 min pre-incubation, 0.3 to 24 nM antagonist), the “effect on maximal CGRP response (cAMP production)” value was “without altering the maximal response”. The same compound came in with an antagonist equilibrium constant (Kb) in assay [1] (global Gaddum/Schild fit, Schild slope of 1, two datasets) of 0.247 ± 0.04 nM. The Schild slope in assay [1] (global fits with unconstrained Schild slope, two separate experiments) was 1.17 and 0.8. Moreover, the “% Inhibition” value was 9.9% in assay [2] (0.1 mg/kg s.c., 15 min); −6.7% in assay [2] (0.1 mg/kg s.c., 60 min); −4.9% in assay [2] (0.1 mg/kg s.c., 105 min); 28.8% in assay [2] (0.3 mg/kg s.c., 15 min); 27.6* % in assay [2] (0.3 mg/kg s.c., 60 min); 41.2* % in assay [2] (0.3 mg/kg s.c., 105 min). Moreover, the “% Inhibition” value in assay [2] (3 mg/kg s.c., 15 min) was 26.5%; in assay [2] (3 mg/kg s.c., 60 min), 36.7* %; in assay [2] (3 mg/kg s.c., 105 min), 39.0* %; in assay [2] (7 mg/kg s.c., 15 min), 25.1%; in assay [2] (7 mg/kg s.c., 60 min) it was 53.9* %; in assay [2] (7 mg/kg s.c., 105 min), 70.0* %.

(Values after patent US8143403B2 (Bristol-Myers Squibb Company, priority 2008, dated 2012).)
